Results published in US12419296B2, “Remote detection of pre-determined termite feeding activities in soil” (University of Florida Research Foundation, Inc., priority 2019, dated 2025).

What was measured:
rat [1] = conditions: cited from earlier work
rat [2] = assay: rat oral LD50 (acute toxicity); format: in vivo; conditions: relative to soil termiticide fipronil

Row | Compound | rat oral LD50 (rat [1]) | fold less toxic than fipronil (rat oral LD50) (rat [2]) [fold]
1 | N#Cc1nn(-c2c(Cl)cc(C(F)(F)F)cc2Cl)c(N)c1[S+]([O-])C(F)(F)F (stereo not drawn) [fipronil] | 97 mg/kg | –
2 | O=C(NC(=O)c1c(F)cccc1F)Nc1cc(Cl)c(OC(F)(F)C(F)C(F)(F)F)c(Cl)c1F (stereo not drawn) [noviflumuron] | > 3,160 mg/kg | 32
